In US20120093822A1, “DOPAMINE D2 RECEPTOR-DISC1 INTERACTION, COMPOSITIONS AND METHODS FOR MODULATING SAME” (Centre Forr Addiction And Mental Health, priority 2009, published 2012):
Entries after “also recorded” stand apart in the source; their conditions may differ. Where two headings read alike, the source gives them in different places. Where no end group is shown, it is not given here.

Columns and labels:
[1] = tested on: D2-DISC1 interaction; experiment: Apomorphine-induced disruption of pre-pulse inhibition (PPI) of the acoustic startle reflex in rats; assay type: in vivo, rat; settings: for Effect on apomorphine-induced disruption of PPI: apomorphine 0.3 mg/kg SC, peptide ICV (1 mM, 4 μl; 40 nmol), n=5 per group
Sequence of D2-DISC1 interaction (P61169 whole entry, one chain of several): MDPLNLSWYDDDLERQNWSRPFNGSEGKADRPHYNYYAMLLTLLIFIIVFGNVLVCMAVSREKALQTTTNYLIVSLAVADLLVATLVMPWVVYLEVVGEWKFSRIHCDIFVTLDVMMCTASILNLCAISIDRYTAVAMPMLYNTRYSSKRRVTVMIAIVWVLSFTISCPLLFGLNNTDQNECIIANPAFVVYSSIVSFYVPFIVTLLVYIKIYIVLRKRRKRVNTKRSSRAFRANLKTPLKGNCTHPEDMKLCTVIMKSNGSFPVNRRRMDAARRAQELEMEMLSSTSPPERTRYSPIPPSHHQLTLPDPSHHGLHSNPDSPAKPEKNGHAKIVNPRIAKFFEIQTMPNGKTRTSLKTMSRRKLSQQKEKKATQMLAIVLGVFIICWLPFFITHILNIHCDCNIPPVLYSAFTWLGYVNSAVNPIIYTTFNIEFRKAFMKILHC
Description: PPI of the acoustic startle reflex is a sensorimotor gating process known to be deficient in a number of neurologic and psychiatric conditions including, but not limited to schizophrenia, Huntington's disease, Tourette's syndrome, and obsessive compulsive disorder (OCD).

[2] = molecular target: D2R (Homo sapiens, UniProt P14416); settings: cited from earlier work
Sequence of D2R (P14416 whole entry, the tested form may be a part): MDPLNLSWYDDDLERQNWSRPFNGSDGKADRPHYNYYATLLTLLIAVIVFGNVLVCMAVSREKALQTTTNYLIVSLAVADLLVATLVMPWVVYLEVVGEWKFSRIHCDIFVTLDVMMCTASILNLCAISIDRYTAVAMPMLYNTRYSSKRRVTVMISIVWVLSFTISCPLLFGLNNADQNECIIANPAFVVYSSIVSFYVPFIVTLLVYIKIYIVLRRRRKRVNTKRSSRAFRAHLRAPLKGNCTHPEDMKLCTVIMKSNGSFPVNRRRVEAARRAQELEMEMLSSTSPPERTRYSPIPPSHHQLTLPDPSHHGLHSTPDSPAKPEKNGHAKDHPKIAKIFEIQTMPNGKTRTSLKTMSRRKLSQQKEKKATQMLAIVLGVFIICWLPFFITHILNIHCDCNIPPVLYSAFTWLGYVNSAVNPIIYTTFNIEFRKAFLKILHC

[3] = molecular target: T1, DISC1 (Rattus norvegicus, UniProt Q810H6); experiment: Affinity purification (pull-down) of DISC1 from solubilized striatal tissue by GST fusion proteins of D2R fragments; assay type: binding; settings: GST fusion protein
T1 construct: from tissue; host or cells: rat striatum, solubilized
T1 sequence (Q810H6 1-846): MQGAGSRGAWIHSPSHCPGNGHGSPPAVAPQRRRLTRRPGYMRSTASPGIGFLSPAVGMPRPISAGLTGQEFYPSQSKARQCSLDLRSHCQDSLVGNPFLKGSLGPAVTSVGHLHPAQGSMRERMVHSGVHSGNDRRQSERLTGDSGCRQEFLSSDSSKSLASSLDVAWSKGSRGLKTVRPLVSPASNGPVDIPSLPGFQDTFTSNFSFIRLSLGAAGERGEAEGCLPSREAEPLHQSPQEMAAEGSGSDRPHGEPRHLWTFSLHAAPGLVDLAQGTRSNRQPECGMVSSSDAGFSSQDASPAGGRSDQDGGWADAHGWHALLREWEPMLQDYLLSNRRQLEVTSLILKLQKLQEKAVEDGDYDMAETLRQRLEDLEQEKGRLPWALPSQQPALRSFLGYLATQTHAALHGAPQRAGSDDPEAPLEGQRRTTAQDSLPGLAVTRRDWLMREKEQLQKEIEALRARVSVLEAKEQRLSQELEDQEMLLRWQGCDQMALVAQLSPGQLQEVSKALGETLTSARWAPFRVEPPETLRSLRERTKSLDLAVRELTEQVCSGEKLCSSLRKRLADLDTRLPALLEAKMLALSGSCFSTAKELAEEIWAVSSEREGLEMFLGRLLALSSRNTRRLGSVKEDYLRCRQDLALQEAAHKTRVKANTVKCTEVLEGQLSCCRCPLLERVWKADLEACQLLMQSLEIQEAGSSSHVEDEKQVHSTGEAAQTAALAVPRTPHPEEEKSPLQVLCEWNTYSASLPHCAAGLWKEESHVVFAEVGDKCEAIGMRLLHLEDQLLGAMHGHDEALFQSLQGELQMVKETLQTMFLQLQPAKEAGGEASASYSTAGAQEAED
Description: (A) Co-immunoprecipitation of DISC1 by D2 antibody in rat striatal tissue.
This method uses GST fusion proteins encoding the fragments of a test protein to affinity purify other proteins that may form complexes with the test protein in tissue from a specific brain region. Since DISC1 is an intracellular protein, we made GST-fusion proteins encoding two intracellular regions of D2R: the carboxyl tail (CT) of D2R (D2CT: T428-C443) and the third intracellular loop ([…]) of D2R (D2IL3: K211-Q373). Many dopamine receptor interacting proteins have been identified that interact with either the CT or the IL3 region of dopamine receptors (94). […] GST fusion proteins encoding these two fragments were made and used in the affinity purification experiment. […] Thus, we concluded that D2IL3-1-1 (SEQ ID NO:1) comprises the site for D2-DISC1 interaction.

For CN1CCc2cccc3c2[C@H]1Cc1ccc(O)c(O)c1-3 [apomorphine], the “Effect on PPI in comparison with saline/vehicle” value ([1]; rat, in vivo) was “reduced levels of PPI at all 3 prepulse intensities; also recorded: significantly disrupted PPI”.
For OCCOCCN1CCN(C2=Nc3ccccc3Sc3ccccc32)CC1 [quetiapine], the “Antagonism of β-arrestin 2 recruitment to D2R” value (“Antagonism” below) ([2]; induced by activation of D2R) is given as “potently antagonize”.
In the case of Cc1nc2n(c(=O)c1CCN1CCC(c3noc4cc(F)ccc34)CC1)CCCC2 [risperidone], the “Antagonism” value [2] is listed as “potently antagonize”.
In the case of O=C1Cc2cc(CCN3CCN(c4nsc5ccccc45)CC3)c(Cl)cc2N1 [ziprasidone], the “Antagonism” value ([2]; induced by activation of D2R) is given as “potently antagonize”.
In the case of “GST-D2CT: GST-fusion protein of the carboxyl tail of D2R (D2CT: T428-C443) (TFNIEFRKAFLKILHC; also: GST fusion; UniProt P14416 428-443, looked up, fragment)”, the “Pull-down (precipitation) of DISC1” value [3] was “not”.
For “GST-D2IL3-1-2: GST fusion of D2IL3-1-2: K226-L240 (KRSSRAFRAHLRAPL; also: GST fusion; UniProt P14416 226-240, looked up, fragment)”, the “Pull-down (precipitation) of DISC1” value [3] was “failed to”.
For “GST-D2IL3-1: GST fusion protein of D2IL3-1: K211-V270 (KIYIVLRRRRKRVNTKRSSRAFRAHLRAPLKGNCTHPEDMKLCTVIMKSNGSFPVNRRRV; cysteine pairing not given here; also: GST fusion; UniProt P14416 211-270, looked up, fragment)”, the “Pull-down (precipitation) of DISC1” value [3] was “Affinity pull-down of the DISC1; also recorded: recognizes and precipitates DISC1”.
With “TAT-D2pep-sc: scrambled peptide YGRKKRRQRRRVLRKTRIRRYKIRNV (SEQ ID NO:3) (TAT-D2 scrambled fusion protein)” the “Effect on apomorphine-induced disruption of PPI” value ([1]; rats) was “did not affect the response to apomorphine”, the “Effect on apomorphine-induced disruption of PPI” value ([1]; rats, listed as TAT-D2pep-scramb) was “no effect” and the “Effect on basal PPI (degree of PPI without apomorphine)” value ([1]; rats, peptide ICV) was “did not affect”.
